Measurements from PubChem BioAssay (NCI).
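Briefly, cells in 96-well plates were exposed to five compound concentrations for 48 h, and endpoints were estimated by linear interpolation. The concentration for full growth arrest is given as TGI.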

Assays:
Assay in all cases: inhibition of tumour cell growth, NCI panel, 48 h
NCI-H226 lung = test system: NCI-H226 lung
DMS 114 small cell lung = test system: DMS 114 small cell lung
SNB-75 CNS = test system: SNB-75 CNS
SF-268 CNS = test system: SF-268 CNS
SR leukemia = test system: SR leukemia
SNB-19 CNS = test system: SNB-19 CNS
M14 melanoma = test system: M14 melanoma
A498 renal = test system: A498 renal
SK-OV-3 ovarian = test system: SK-OV-3 ovarian
K-562 leukemia = test system: K-562 leukemia
OVCAR-3 ovarian = test system: OVCAR-3 ovarian
A549 NSCLC = test system: A549 NSCLC
RPMI-8226 leukemia = test system: RPMI-8226 leukemia
CCRF-CEM leukemia = test system: CCRF-CEM leukemia
SK-MEL-28 melanoma = test system: SK-MEL-28 melanoma
OVCAR-5 ovarian = test system: OVCAR-5 ovarian
KM20L2 colon = test system: KM20L2 colon
OVCAR-4 ovarian = test system: OVCAR-4 ovarian
M19-MEL melanoma = test system: M19-MEL melanoma
HCT-116 colon = test system: HCT-116 colon
SF-539 CNS = test system: SF-539 CNS
HOP-92 NSCLC = test system: HOP-92 NSCLC
HOP-62 NSCLC = test system: HOP-62 NSCLC
HCC-2998 colon = test system: HCC-2998 colon
CAKI-1 renal = test system: CAKI-1 renal
SK-MEL-5 melanoma = test system: SK-MEL-5 melanoma
NCI-H23 lung = test system: NCI-H23 lung
SN12C renal = test system: SN12C renal
DMS 273 small cell lung = test system: DMS 273 small cell lung
UACC-257 melanoma = test system: UACC-257 melanoma
KM12 colon = test system: KM12 colon
HL-60(TB) leukemia = test system: HL-60(TB) leukemia
NCI-H522 lung = test system: NCI-H522 lung
LOX IMVI melanoma = test system: LOX IMVI melanoma
UO-31 renal = test system: UO-31 renal
OVCAR-8 ovarian = test system: OVCAR-8 ovarian
MOLT-4 leukemia = test system: MOLT-4 leukemia
COLO 205 colon = test system: COLO 205 colon
MALME-3M melanoma = test system: MALME-3M melanoma
786-0 renal = test system: 786-0 renal
TK-10 renal = test system: TK-10 renal
HT29 colon = test system: HT29 colon
RXF 393 renal = test system: RXF 393 renal
SW-620 colon = test system: SW-620 colon
EKVX NSCLC = test system: EKVX NSCLC
SF-295 CNS = test system: SF-295 CNS
SK-MEL-2 melanoma = test system: SK-MEL-2 melanoma
UACC-62 melanoma = test system: UACC-62 melanoma
NCI-H460 lung = test system: NCI-H460 lung
ACHN renal = test system: ACHN renal
U251 CNS = test system: U251 CNS
HCT-15 colon = test system: HCT-15 colon
PC-3 prostate = test system: PC-3 prostate
T-47D breast = test system: T-47D breast
MDA-MB-435 = test system: MDA-MB-435
MDA-N = test system: MDA-N
MDA-MB-231 breast = test system: MDA-MB-231 breast
MCF7 breast = test system: MCF7 breast
HS 578T breast = test system: HS 578T breast
IGROV1 ovarian = test system: IGROV1 ovarian
DU-145 prostate = test system: DU-145 prostate
BT-549 breast = test system: BT-549 breast
NCI/ADR-RES ovarian = test system: NCI/ADR-RES ovarian

COc1ccccc1C=NC12CC3CC(CC(C3)C1)C2
TGI (NCI-H226 lung): > 10 µM
TGI (DMS 114 small cell lung): > 10 µM
TGI (SNB-75 CNS): > 100 µM
TGI (SF-268 CNS): > 100 µM
TGI (SR leukemia): > 100 µM
TGI (SNB-19 CNS): > 100 µM
TGI (M14 melanoma): > 100 µM
TGI (A498 renal): > 100 µM
TGI (SK-OV-3 ovarian): > 100 µM
TGI (K-562 leukemia): > 100 µM
TGI (OVCAR-3 ovarian): > 100 µM
TGI (A549 NSCLC): > 100 µM
TGI (RPMI-8226 leukemia): > 100 µM
TGI (CCRF-CEM leukemia): > 100 µM
TGI (SK-MEL-28 melanoma): > 100 µM
TGI (OVCAR-5 ovarian): > 100 µM
TGI (KM20L2 colon): > 100 µM
TGI (OVCAR-4 ovarian): > 100 µM
TGI (M19-MEL melanoma): > 100 µM
TGI (HCT-116 colon): > 10 µM
TGI (SF-539 CNS): > 100 µM
TGI (HOP-92 NSCLC): > 100 µM
TGI (HOP-62 NSCLC): > 100 µM
TGI (HCC-2998 colon): > 100 µM
TGI (CAKI-1 renal): > 100 µM
TGI (SK-MEL-5 melanoma): > 100 µM
TGI (NCI-H23 lung): > 100 µM
TGI (SN12C renal): > 100 µM
TGI (DMS 273 small cell lung): > 100 µM
TGI (UACC-257 melanoma): > 100 µM
TGI (KM12 colon): > 100 µM
TGI (HL-60(TB) leukemia): > 100 µM
TGI (NCI-H522 lung): > 100 µM
TGI (LOX IMVI melanoma): > 100 µM
TGI (UO-31 renal): > 100 µM
TGI (OVCAR-8 ovarian): > 100 µM
TGI (MOLT-4 leukemia): > 100 µM
TGI (COLO 205 colon): > 100 µM
TGI (MALME-3M melanoma): > 100 µM
TGI (786-0 renal): > 100 µM
TGI (TK-10 renal): > 100 µM
TGI (HT29 colon): > 100 µM
TGI (RXF 393 renal): > 100 µM
TGI (SW-620 colon): > 100 µM
TGI (EKVX NSCLC): > 100 µM
TGI (SF-295 CNS): > 100 µM
TGI (SK-MEL-2 melanoma): > 100 µM
TGI (UACC-62 melanoma): > 100 µM
TGI (NCI-H460 lung): > 100 µM
TGI (ACHN renal): > 100 µM
TGI (U251 CNS): > 100 µM
TGI (HCT-15 colon): > 100 µM

C=C1C(=O)O[C@@H]2C[C@@H]3[C@]4(CC[C@]5(C)[C@@H]([C@H](C)CC/C=C(\C)C=O)CC[C@@]35C)C[C@]4(CCC(=O)OC)[C@H]12
TGI (NCI-H226 lung): 10.8 µM
TGI (PC-3 prostate): 4.48 µM
TGI (T-47D breast): 4.93 µM
TGI (SNB-75 CNS): 4.51 µM
TGI (SF-268 CNS): 2.73 µM
TGI (SR leukemia): 2.32 µM
TGI (MDA-MB-435): 3.16 µM
TGI (MDA-N): 3.42 µM
TGI (MDA-MB-231 breast): 3.66 µM
TGI (SNB-19 CNS): 3.9 µM
TGI (M14 melanoma): 2.91 µM
TGI (A498 renal): 5.33 µM
TGI (SK-OV-3 ovarian): 6.72 µM
TGI (K-562 leukemia): 2.67 µM
TGI (OVCAR-3 ovarian): 3.02 µM
TGI (A549 NSCLC): 13.9 µM
TGI (RPMI-8226 leukemia): 1.22 µM
TGI (CCRF-CEM leukemia): 0.617 µM
TGI (SK-MEL-28 melanoma): 3.99 µM
TGI (OVCAR-5 ovarian): 3.96 µM
TGI (OVCAR-4 ovarian): 3.62 µM
TGI (MCF7 breast): 2.9 µM
TGI (HS 578T breast): 6.77 µM
TGI (IGROV1 ovarian): 4.63 µM
TGI (HCT-116 colon): 2.03 µM
TGI (SF-539 CNS): 4.22 µM
TGI (HOP-92 NSCLC): 3.88 µM
TGI (HOP-62 NSCLC): 4.21 µM
TGI (HCC-2998 colon): 4.1 µM
TGI (CAKI-1 renal): 6.7 µM
TGI (SK-MEL-5 melanoma): 2.3 µM
TGI (NCI-H23 lung): 3.77 µM
TGI (SN12C renal): 3.85 µM
TGI (UACC-257 melanoma): 1.13 µM
TGI (KM12 colon): 3.89 µM
TGI (HL-60(TB) leukemia): 1.29 µM
TGI (DU-145 prostate): 3.31 µM
TGI (BT-549 breast): 5.01 µM
TGI (NCI-H522 lung): 8.91 µM
TGI (LOX IMVI melanoma): 2.61 µM
TGI (UO-31 renal): 3.53 µM
TGI (OVCAR-8 ovarian): 2.15 µM
TGI (MOLT-4 leukemia): 2.94 µM
TGI (COLO 205 colon): 5.64 µM
TGI (MALME-3M melanoma): 3.05 µM
TGI (786-0 renal): 3.23 µM
TGI (TK-10 renal): 3.99 µM
TGI (HT29 colon): 11 µM
TGI (RXF 393 renal): 3.56 µM
TGI (SW-620 colon): 4.11 µM
TGI (EKVX NSCLC): 7.55 µM
TGI (NCI/ADR-RES ovarian): 7.99 µM
TGI (SF-295 CNS): 4.54 µM
TGI (SK-MEL-2 melanoma): 3.43 µM
TGI (UACC-62 melanoma): 3.06 µM
TGI (NCI-H460 lung): 9.13 µM
TGI (ACHN renal): 3.89 µM
TGI (U251 CNS): 2.86 µM
TGI (HCT-15 colon): 3.71 µM
